Experimental data reported in patent EP1494749B1, “PROCESS FOR PREPARATION OF PHARMACEUTICAL COMPOSITION CONTAINING ANTIRETROVIRAL PROTEASE INHIBITOR WITH IMPROVED BIOAVAILABILITY” (Cadila Pharmaceuticals Limited, priority 2002, dated 2003).

Legend:
[1] = in vivo; cited from earlier work
clinical = conditions: human, in vivo
Protocol: 2. Kit In a further aspect, the present invention provides a kit comprising one or more pharmaceutically acceptable doses of an antiretroviral protease inhibitor as defined above and one or more pharmaceutically acceptable doses of piperine or an isomer thereof. […] However, the scope of this invention is not limited by them. […] Nelfinavir i) Two tablets each containing 250 mg of Nelfinavir and a tablet containing 20 mg of piperine. ii) Two tablets each containing 250 mg of Nelfinavir and two tablets each containing 15 mg of piperine. Saquinavir i) Three capsules each containing 200 mg of Saquinavir and three tablets each containing 5 mg of piperine. ii) Four capsules each containing 200 mg of Saquinavir and a tablets containing 20 mg of piperine. 3. The following are Examples of excipients (i.e. other than piperine) which can be used to prepare pharmaceutical compositions of the present invention. However, the scope of this invention is not limited by them. Saquinavir : • Capsule: medium chain mono- and diglycerides, povidone and dl-alpha tocopherol. […] 4. […] However, the scope of this invention is not limited by them. […] 5.

Tmax (clinical): 1.58 h
SMILES: CC(C)(C)NC(=O)[C@@H]1CN(Cc2cccnc2)CCN1C[C@@H](O)C[C@@H](Cc1ccccc1)C(=O)N[C@H]1c2ccccc2C[C@H]1O [Indinavir]
reduction in AUC [1]: 77% ± 8%
